Experimental data taken from patent publication US11174233B1, “Anti-cancer compounds having oxazolone derivation” (King Abdulaziz University, priority 2019, dated 2021).
One block for each compound: values may come before it.

What was measured:
[1] = test system: PC3 (prostate) cancer cells; test: SRB cytotoxicity assay against PC3; assay type: cell-based, human; details: 72 h treatment
Procedure: (§1) MCF-7 (breast) and PC3 (prostate) cancer cells were each grown in RPMI-1640 medium supplemented with 10% heat inactivated FBS, 50 units/mL of penicillin, and […] of streptomycin. The cultures were maintained at 37° C. in a humidified atmosphere containing 5% CO2. The cells were maintained as “monolayer culture” by serial sub-culturing.
(§2) Cytotoxicity was determined using SRB method as previously described by Skehan et al. [Skehan P.; Storeng R.; Scudiero D.; Monks A.; McMahon J.; al., V. D. e., New colorimetric cytotoxicity assay for anticancer drug screening. […] Exponentially growing cells were collected using 0.25% Trypsin-EDTA and seeded in 96-well plates at 1000-2000 cells/well in RPMI-1640 supplemented medium. After 24 h, cells were incubated for 72 h with various concentrations of the tested compounds. Following 72 h treatment, the cells would be fixed with 10% trichloroacetic acid for 1 h at 4° C. Wells were stained for 10 min at room temperature with 0.4% SRB dissolved in 1% acetic acid. The plates were air dried for 24 h and the dye was solubilized with Tris-HCl for 5 min on a shaker at 1600 rpm. The optical density (OD) of each well was measured spectrophotometrically at 564 nm with an ELISA microplate reader (ChroMate-4300, FL, USA). The IC50 values were calculated according to the equation for Boltzman sigmoidal concentration—response curve using the nonlinear regression fitting models (Graph Pad, Prism Version 5).

[2] = test system: MCF-7 (breast) cancer cells; test: SRB cytotoxicity assay against MCF7; assay type: cell-based, human; details: 72 h treatment
Procedure: as §1, §2

Compound: O=C(Cc1ccc(NC(=O)C(=Cc2ccc(Cl)cc2)NC(=O)c2ccccc2)cc1)NCc1ccccc1 (stereo in doubt) [KIM-221V, (E)-N-(3-((4-(2-(benzylamino)-2-oxoethyl)phenyl)amino)-1-(4-chlorophenyl)-3-oxoprop-1-en-2-yl)benzamide]
IC50 ([1]; Homo sapiens): 4.08 µM | IC50 ([2]; Homo sapiens): 3.12 µM

melting point: 164 to 165 °C
Compound: CC1=N/C(=C\c2ccccc2)C(=O)N1c1ccc(CC(=O)NCc2ccccc2)cc1 [KIM-111C, (Z)—N-benzyl-2-(4-(4-benzylidene-2-methyl-5-oxo-4,5-dihydro-1H-imidazol-1-yl)phenyl)acetamide]

melting point: 197 °C
Compound: CC(=O)N/C(=C/c1ccccc1)C(=O)Nc1ccc(CC(=O)NCc2ccccc2)cc1 [KIM-111V, (E)-2-acetamido-N-(4-(2-(benzylamino)-2-oxoethyl)phenyl)-3-phenylacrylamide]
IC50 ([1]; Homo sapiens): > 100 µM | IC50 ([2]; Homo sapiens): > 100 µM

melting point: 209 to 211 °C
Compound: CC1=N/C(=C\c2ccc(Cl)cc2)C(=O)N1c1ccc(CC(=O)NCc2ccccc2)cc1 [KIM-121C, (Z)—N-benzyl-2-(4-(4-(4-chlorobenzylidene)-2-methyl-5-oxo-4,5-dihydro-1H-imidazol-1-yl)phenyl)acetamide]
IC50 ([1]; Homo sapiens): 6.86 µM

Compound: CC(=O)N/C(=C/c1ccc(Cl)cc1)C(=O)Nc1ccc(CC(=O)NCc2ccccc2)cc1 [KIM-121V, (E)-2-acetamido-N-(4-(2-(benzylamino)-2-oxoethyl)phenyl)-3-(4-chlorophenyl)acrylamide]
IC50 ([1]; Homo sapiens): 57.3 µM | IC50 ([2]; Homo sapiens): > 100 µM

Compound: COc1cc(/C=C2\N=C(C)N(c3ccc(CC(=O)NCc4ccccc4)cc3)C2=O)ccc1O [KIM-131C, (Z)—N-benzyl-2-(4-(4-(4-hydroxy-3-methoxybenzylidene)-2-methyl-5-oxo-4,5-dihydro-1H-imidazol-1-yl)phenyl)acetamide]
IC50 ([1]; Homo sapiens): 5.83 µM | IC50 ([2]; Homo sapiens): 9.48 µM

Compound: COc1cc(/C=C(/NC(C)=O)C(=O)Nc2ccc(CC(=O)NCc3ccccc3)cc2)ccc1O [KIM-131V, (E)-2-acetamido-N-(4-(2-(benzylamino)-2-oxoethyl)phenyl)-3-(4-hydroxy-3-methoxyphenyl) acrylamide]
IC50 [1]: 61.3 µM | IC50 [2]: 53.5 µM

Compound: COc1ccc(/C=C(/NC(C)=O)C(=O)Nc2ccc(CC(=O)NCc3ccccc3)cc2)cc1 [KIM-161V, (E)-2-acetamido-N-(4-(2-(benzylamino)-2-oxoethyl)phenyl)-3-(4-methoxyphenyl) acrylamide]
IC50 [1]: 41.1 µM | IC50 [2]: 44.3 µM

melting point: 218 to 219 °C
Compound: O=C(Cc1ccc(N2C(=O)/C(=C/c3ccccc3)N=C2c2ccccc2)cc1)NCc1ccccc1 [KIM-211C, (Z)—N-benzyl-2-(4-(4-benzylidene-5-oxo-2-phenyl-4,5-dihydro-1H-imidazol-1-yl)phenyl)acetamide]

Compound: O=C(Cc1ccc(NC(=O)/C(=C\c2ccccc2)NC(=O)c2ccccc2)cc1)NCc1ccccc1 [KIM-211V, (E)-N-(3-((4-(2-(benzylamino)-2-oxoethyl)phenyl)amino)-3-oxo-1-phenylprop-1-en-2-yl) benzamide]
IC50 ([1]; Homo sapiens): > 100 µM | IC50 ([2]; Homo sapiens): > 100 µM

melting point: 218 to 220 °C
Compound: O=C(Cc1ccc(N2C(=O)/C(=C/c3ccc(Cl)cc3)N=C2c2ccccc2)cc1)NCc1ccccc1 [KIM-221C, (Z)—N-benzyl-2-(4-(4-(4-chlorobenzylidene)-5-oxo-2-phenyl-4,5-dihydro-1H-imidazol-1-yl)phenyl)acetamide]

melting point: 109 to 112 °C
Compound: COc1cc(/C=C2\N=C(c3ccccc3)N(c3ccc(CC(=O)NCc4ccccc4)cc3)C2=O)ccc1O [KIM-231C, (Z)—N-benzyl-2-(4-(4-(4-hydroxy-3-methoxybenzylidene)-5-oxo-2-phenyl-4,5-dihydro-1H-imidazol-1-yl)phenyl)acetamide]

Compound: COc1cc(/C=C(/NC(=O)c2ccccc2)C(=O)Nc2ccc(CC(=O)NCc3ccccc3)cc2)ccc1O [KIM-231V, (E)-N-(3-((4-(2-(benzylamino)-2-oxoethyl)phenyl)amino)-1-(4-hydroxy-3-methoxyphenyl)-3-oxoprop-1-en-2-yl)benzamide]
IC50 ([1]; Homo sapiens): > 100 µM | IC50 ([2]; Homo sapiens): > 100 µM

melting point: 193 °C
Compound: COc1ccc(/C=C2\N=C(c3ccccc3)N(c3ccc(CC(=O)NCc4ccccc4)cc3)C2=O)cc1 [KIM-261C, (Z)—N-benzyl-2-(4-(4-(4-methoxybenzylidene)-5-oxo-2-phenyl-4,5-dihydro-1H-imidazol-1-yl)phenyl)acetamide]

Compound: COc1ccc(/C=C(/NC(=O)c2ccccc2)C(=O)Nc2ccc(CC(=O)NCc3ccccc3)cc2)cc1 [KIM-261V, (E)-N-(3-((4-(2-(benzylamino)-2-oxoethyl)phenyl)amino)-1-(4-methoxyphenyl)-3-oxoprop-1-en-2-yl)benzamide]
IC50 ([1]; Homo sapiens): > 100 µM | IC50 ([2]; Homo sapiens): > 100 µM

Compound: Cc1cc(F)ccc1/C=C(/NC(=O)c1ccccc1)C(=O)Nc1ccc(CC(=O)NCc2ccccc2)cc1 [KIM-2101V, (E)-N-(3-((4-(2-(benzylamino)-2-oxoethyl)phenyl)amino)-1-(4-fluoro-2-methylphenyl)-3-oxoprop-1-en-2-yl)benzamide]
IC50 ([1]; Homo sapiens): > 100 µM | IC50 ([2]; Homo sapiens): > 100 µM

Compound: COc1ccc(CNC(=O)Cc2ccc(NC(=O)/C(=C\c3ccc(Cl)cc3)NC(=O)c3ccccc3)cc2)cc1 [KIM-2216V, (E)-N-(1-(4-chlorophenyl)-3-((4-(2-((4-methoxybenzyl)amino)-2-oxoethyl)phenyl)amino)-3-oxoprop-1-en-2-yl)benzamide]
IC50 ([1]; Homo sapiens): > 100 µM | IC50 ([2]; Homo sapiens): > 100 µM

Compound: O=C(Cc1ccc(NC(=O)/C(=C\c2ccc(Cl)cc2)NC(=O)c2ccccc2)cc1)NCc1ccco1 [KIM-2230V, (E)-N-(1-(4-chlorophenyl)-3-((4-(2-((furan-2-ylmethyl)amino)-2-oxoethyl)phenyl)amino)-3-oxoprop-1-en-2-yl)benzamide]
IC50 ([1]; Homo sapiens): 97.8 µM | IC50 ([2]; Homo sapiens): > 100 µM

Compound: CN(Cc1ccccc1)C(=O)Cc1ccc(NC(=O)/C(=C\c2ccc(Cl)cc2)NC(=O)c2ccccc2)cc1 [KIM-2245V, (E)-N-(3-((4-(2-(benzyl(methyl)amino)-2-oxoethyl)phenyl)amino)-1-(4-chlorophenyl)-3-oxoprop-1-en-2-yl)benzamide]
IC50 ([1]; Homo sapiens): > 100 µM | IC50 ([2]; Homo sapiens): > 100 µM

Compound: O=C(Cc1ccc(NC(=O)/C(=C\c2ccc(Cl)cc2)NC(=O)c2ccccc2)cc1)NCCc1ccccc1 [KIM-2246V, (E)-N-(1-(4-chlorophenyl)-3-oxo-3-((4-(2-oxo-2-(phenethylamino)ethyl)phenyl)amino)prop-1-en-2-yl)benzamide]
IC50 ([1]; Homo sapiens): > 100 µM | IC50 ([2]; Homo sapiens): > 100 µM

Compound: CC(NC(=O)Cc1ccc(NC(=O)/C(=C\c2ccc(Cl)cc2)NC(=O)c2ccccc2)cc1)c1ccccc1 (stereo not shown) [KIM-2247V, (E)-N-(1-(4-chlorophenyl)-3-oxo-3-((4-(2-oxo-2-((1-phenylethyl)amino)ethyl)phenyl)amino)prop-1-en-2-yl)benzamide]
IC50 ([1]; Homo sapiens): > 100 µM | IC50 ([2]; Homo sapiens): > 100 µM

Compound: O=C(Cc1ccc(NC(=O)/C(=C\c2ccc(Cl)cc2)NC(=O)c2ccccc2)cc1)NCc1ccc(F)cc1 [KIM-2248V, (E)-N-(1-(4-chlorophenyl)-3-((4-(2-((4-fluorobenzyl)amino)-2-oxoethyl)phenyl)amino)-3-oxoprop-1-en-2-yl)benzamide]
IC50 ([1]; Homo sapiens): 85.1 µM | IC50 ([2]; Homo sapiens): 89.6 µM

Compound: O=C(Cc1ccc(NC(=O)/C(=C\c2ccc(Cl)cc2)NC(=O)c2ccccc2)cc1)NCc1ccc(-c2ccccc2)cc1 [KIM-2249V, (E)-N-(3-((4-(2-(([1,1′-biphenyl]-4-ylmethyl)amino)-2-oxoethyl)phenyl)amino)-1-(4-chlorophenyl)-3-oxoprop-1-en-2-yl)benzamide]
IC50 ([1]; Homo sapiens): 92.2 µM | IC50 ([2]; Homo sapiens): 87.5 µM

Compound: O=C(Cc1ccc(NC(=O)/C(=C\c2ccc(Cl)cc2)NC(=O)c2ccccc2)cc1)NCc1cccc(F)c1 [KIM-2250V, (E)-N-(1-(4-chlorophenyl)-3-((4-(2-((3-fluorobenzyl)amino)-2-oxoethyl)phenyl)amino)-3-oxoprop-1-en-2-yl)benzamide]
IC50 ([1]; Homo sapiens): > 100 µM | IC50 ([2]; Homo sapiens): > 100 µM

Compound: O=C(Cc1ccc(NC(=O)/C(=C\c2ccc(Cl)cc2)NC(=O)c2ccccc2)cc1)Nc1ccccc1 [KIM-22101V, (E)-N-(1-(4-chlorophenyl)-3-oxo-3-((4-(2-oxo-2-(phenylamino)ethyl)phenyl)amino)prop-1-en-2-yl)benzamide]
IC50 ([1]; Homo sapiens): > 100 µM | IC50 ([2]; Homo sapiens): > 100 µM
